The values that follow come from paper PMC8558150 (Acta Pharmaceutica Sinica. B, 2021).

For one assay, the target named is SARS-CoV-2 M^pro. The settings on record: cited from earlier work; for IC50: read-out: FRET IC50.
The target in assay [1] is T1, SARS CoV-2 M^pro (Severe acute respiratory syndrome coronavirus 2, UniProt P0DTD1). The class given is cell-based.
For assay [2], the target named is T1, SARS CoV-2 M^pro. It counts as biochemical.
Assay [3] addresses T1, SARS CoV-2 M^pro. The conditions noted are these: cited from earlier work.
For assay [4], the system named is SARS-CoV-2 (isolate USA-WA1/2020). Description: Antiviral immunofluorescence assay in Calu-3 cells. The class given is cell-based. The conditions noted are these: read-out: Antiviral EC50 in Calu-3 cells.
The test system of a further assay is cathepsin L. The conditions noted are these: read-out: cathepsin L IC50; cited from earlier work.
The target in assay [5] is T1, SARS CoV-2 M^pro. Description: Thermal shift assay. The class given is binding.
For a further assay, the system named is SARS-CoV M^pro. The settings on record: read-out: SARS-CoV M^pro IC50; cited from earlier work.
A further assay deals with SARS-CoV-2. The conditions noted are these: read-out: EC50, secondary viral yield reduction assay; Vero E6 cells; cited from earlier work.

Where two headings read alike, the source gives them in different places. Peptide text beside a SMILES is read from it.

Regarding `CCOc1nc2cccc(C(=O)O)c2n1Cc1ccc(-c2ccccc2-c2nnn[nH]2)cc1` [candesartan], at SARS-CoV-2 M^pro, the inhibition constant Ki is 180 ± 20 nM and the IC50 was 2800 ± 300 nM.

Take `CCN(CC)CCCC(C)Nc1ccnc2cc(Cl)ccc12` (centres unmarked) [chloroquine]: the Ki on SARS-CoV-2 M^pro is 560 ± 120 nM.

As to `CC(C)=CC[C@@H](O)C1=CC(=O)c2c(O)ccc(O)c2C1=O` [shikonin], the “result in FlipGFP assay (in words)” value on SARS CoV-2 M^pro [1] is listed as “no inhibition”. For the same compound, the “result in Protease-Glo luciferase assay (in words)” value at SARS CoV-2 M^pro [2] is on record as “no inhibition”. In addition, the “M^pro inhibition in FRET assay in the presence of DTT or GSH (in words)” value on SARS CoV-2 M^pro [3] is recorded as “no inhibition”.

Regarding `CN(C)[C@@H]1C(O)=C(C(N)=O)C(=O)[C@@]2(O)C(O)=C3C(=O)c4c(O)cccc4[C@@](C)(O)[C@H]3[C@H](O)[C@@H]12` [oxytetracycline], the Ki on SARS-CoV-2 M^pro is 990 ± 60 nM.

`O=c1sn(-c2cccc3ccccc23)c(=O)n1Cc1ccccc1` [tideglusib]: the “result in FlipGFP assay (in words)” value at SARS CoV-2 M^pro [1] is given as “no inhibitory activity”. Also, the “result in Protease-Glo luciferase assay (in words)” value at SARS CoV-2 M^pro [2] was “no inhibitory activity”.

Take `CCCC(NC(=O)C(CC(C)C)NC(=O)OCc1ccccc1)C(=O)C(=O)NCc1ccccn1` (centres unmarked) [calpain inhibitor XII]: in [4], the EC50 was determined as 14.8 µM. In the assay with cathepsin L, the IC50 is 1.62 nM.

As for `CCN(CC)C(=S)SSC(=S)N(CC)CC` [disulfiram], on SARS CoV-2 M^pro [1], the “result in FlipGFP assay (in words)” value is given as “no inhibition”. For the same compound, the “result in Protease-Glo luciferase assay (in words)” value on SARS CoV-2 M^pro [2] is recorded as “no inhibition”.

Regarding `CCC[C@H](NC(=O)[C@@H]1[C@H]2CCC[C@H]2CN1C(=O)[C@@H](NC(=O)[C@@H](NC(=O)c1cnccn1)C1CCCCC1)C(C)(C)C)C(=O)C(=O)NC1CC1` [telaprevir], the “inhibition in FRET assay” value on SARS CoV-2 M^pro [3] (at 20 μmol/L) is 31%.

In the case of `COC(=O)N[C@H](C(=O)N[C@@H](Cc1ccccc1)[C@@H](O)CN(Cc1ccc(-c2ccccn2)cc1)NC(=O)[C@@H](NC(=O)OC)C(C)(C)C)C(C)(C)C` [atazanavir], on SARS CoV-2 M^pro [1], the “result in FlipGFP assay (in words)” value is reported as “not conclusive”.

For the compound `O=c1cc(-c2ccccc2)oc2cc(O)c(O)c(O)c12` [baicalein], on SARS CoV-2 M^pro [1], the “result in FlipGFP assay (in words)” value was “no inhibition”. For the same compound, the “result in Protease-Glo luciferase assay (in words)” value on SARS CoV-2 M^pro [2] is listed as “no inhibition”.

In the case of `CSCC[C@@H](C=O)NC(=O)[C@H](CC(C)C)NC(=O)[C@H](CC(C)C)NC(C)=O` [calpain inhibitor II] (Ac-Leu-Leu-Met-aldehyde), the EC50 in assay [4] is 30.3 µM. Further, in the assay with cathepsin L, the concentration for half-maximal inhibition (IC50) was 0.41 nM.

Regarding `Cc1c(O)cccc1C(=O)N[C@@H](CSc1ccccc1)[C@H](O)CN1C[C@H]2CCCC[C@H]2C[C@H]1C(=O)NC(C)(C)C` [nelfinavir], the “result in FlipGFP assay (in words)” value at SARS CoV-2 M^pro [1] is “not conclusive”.

As to `CCC(C)SSc1ncc[nH]1` (centres unmarked) [PX-12], the “result in FlipGFP assay (in words)” value at SARS CoV-2 M^pro [1] is recorded as “no inhibitory activity”. In addition, the “result in Protease-Glo luciferase assay (in words)” value on SARS CoV-2 M^pro [2] is “no inhibitory activity”.

Turning to `COC(=O)C1=C(C)NC(C)=C(C(=O)OCCN2CCN(C(c3ccccc3)c3ccccc3)CC2)C1c1cccc([N+](=O)[O-])c1` (centres unmarked) [manidipine], the “binding to M^pro in thermal shift assay (in words)” value at SARS CoV-2 M^pro [5] is “did not show binding”. For the same compound, the “result in FlipGFP assay (in words)” value on SARS CoV-2 M^pro [1] is “no activity”. For the same compound, the “result in Protease-Glo luciferase assay (in words)” value at SARS CoV-2 M^pro [2] is on record as “no activity”. Besides, the IC50 in the assay with SARS-CoV-2 M^pro (in the presence of 0.05% Tween-20) is over 100000 nM.

Consider `CC(C)c1nc(CN(C)C(=O)N[C@H](C(=O)N[C@@H](Cc2ccccc2)C[C@H](O)[C@H](Cc2ccccc2)NC(=O)OCc2cncs2)C(C)C)cs1` [ritonavir], for which the “result in FlipGFP assay (in words)” value on SARS CoV-2 M^pro [1] is “not active”. On SARS CoV-2 M^pro [2], the “result in Protease-Glo luciferase assay (in words)” value is reported as “not active”.

With `Cc1cccc(C)c1OCC(=O)N[C@@H](Cc1ccccc1)[C@@H](O)C[C@H](Cc1ccccc1)NC(=O)[C@H](C(C)C)N1CCCNC1=O` [lopinavir], in the assay on SARS-CoV M^pro, the IC50 was 50 µM. In addition, the “result in FlipGFP assay (in words)” value on SARS CoV-2 M^pro [1] is given as “not conclusive”. In addition, on SARS CoV-2 M^pro [2], the “result in Protease-Glo luciferase assay (in words)” value was “not active”.

On to `CCCCCCNC(=O)n1cc(F)c(=O)[nH]c1=O` [carmofur], for which the “result in FlipGFP assay (in words)” value at SARS CoV-2 M^pro [1] is “no inhibitory activity”. For the same compound, the “result in Protease-Glo luciferase assay (in words)” value at SARS CoV-2 M^pro [2] was “no inhibitory activity”.

Take `O=c1c2ccccc2[se]n1-c1ccccc1` [ebselen]: at SARS CoV-2 M^pro [1], the “result in FlipGFP assay (in words)” value was “no inhibition”. In addition, the “result in Protease-Glo luciferase assay (in words)” value on SARS CoV-2 M^pro [2] was “no inhibition”. In addition, on SARS CoV-2 M^pro [3], the “M^pro inhibition in FRET assay in the presence of DTT or GSH (in words)” value is “completely lost the M^pro inhibition”.

On to `CC(C)c1nc(CN(C)C(=O)N[C@@H](CCN2CCOCC2)C(=O)N[C@H](CC[C@H](Cc2ccccc2)NC(=O)OCc2cncs2)Cc2ccccc2)cs1` [cobicistat], for which the “result in FlipGFP assay (in words)” value on SARS CoV-2 M^pro [1] is “not conclusive”.

`CC(C)(C)NC(=O)N[C@H](C(=O)N1C[C@H]2[C@@H]([C@H]1C(=O)NC(CC1CCC1)C(=O)C(N)=O)C2(C)C)C(C)(C)C` (some centres unmarked) [boceprevir]: the 50% effective concentration (EC50) with SARS-CoV-2 is 1950 nM.
